4 molecules from patent publication US20210214376A1, “HALOGENATED BIOTIN-MODIFIED DIMER AND USE THEREOF” (The University of Tokyo, priority 2018, published 2021) can be followed below.

For test [1], the system named is HER2-positive SKOV3 cells. Kind of test: Binding of astatine-labeled Psyche B to Herceptin-V2122 pre-bound to SKOV3 cells. The conditions noted are these: 10 kBq/tube; Herceptin-V2122 versus negative control CEA-V2122; FIG. 6. The test is classed as cell-based. The procedure: (§1) Whether or not astatine-labeled Psyche B has binding ability to Herceptin-V2122, which had previously been bound to HER2-positive SKOV3 cells, was confirmed. As a negative control, CEA-V2122 was used. Psyche B-At211 used herein was prepared according to Example 1(4), whereas Herceptin-V2122 and CEA-V2122 were prepared according to the method described in Japanese Patent Application 2018-247363, as described above. The specific assay method is as follows.
(§2) Four 1.5-mL tubes were prepared, and the cells were then dispersed into each tube to a cell density of 0.875×10^6 cells/tube. Herceptin-V2122 was added to two tubes to result in N=2, whereas CEA-V2122 was added to the remaining two tubes. Subsequently, incubation was carried out on ice for 1 hour, and astatine-labeled Psyche B was then added to the resultant to 10 kBq/tube. Thereafter, the obtained mixture was incubated at room temperature for 30 minutes, while shaking. Finally, the cells were precipitated by centrifugation, and a supernatant was then recovered. The supernatant was washed with PBS twice, and the radiation dose was then counted using a gamma counter. The results are shown in the graph of FIG. 6.

The next test has as its system Herceptin-V2122. Kind of test: Binding assay of astatine-labeled Psyche B and Herceptin-Cupid using Ni-NTA magnetic beads. The conditions noted are these: Herceptin-V2122 solution versus PBS control; 5.8 kBq; FIG. 5. The procedure: In order to confirm whether or not astatine-labeled Psyche B has binding ability to Cupid, a binding assay was carried out using Herceptin-Cupid and Ni-NTA magnetic beads (manufactured by Thermo) that bind to a 6×His-tag added to Herceptin-Cupid. Psyche B-At211 used herein was prepared according to Example 1(4), whereas Herceptin-Cupid was prepared according to the method described in Japanese Patent Application 2018-247363, as described above. The specific assay method is as follows.
That is, 4 μL of Herceptin-V2122 solution or PBS used as a control was dispensed into a 1.5-mL tube. Into the tube, 10 μL (corresponding to 5.8 kBq) of Psyche-At211 was added, and the obtained mixture was then incubated at room temperature for 5 minutes. Subsequently, 10 μL of Ni-NTA magnetic beads equilibrated with PBS were added to the reaction mixture, and the thus obtained mixture was then incubated at room temperature for 5 minutes. Thereafter, the beads were precipitated and immobilized by using a magnet, and a supernatant was then recovered. The supernatant was washed with 100 μL of PBS twice, and the radiation dose was then counted using a gamma counter. The results are shown in the graph of FIG. 5.

In test [2] the target is T1, CEA-V2122 (Streptomyces avidinii, UniProt P22629, E125D/E140N/N47D/N73G/R108K/R127K/S51D/S69N/Y107S/Y46S).
T1 construct: At the C-terminus a 6xHis tag; The expressed gene carries a pelB signal
Kind of test: Analysis of affinity of CEA-V2122 for Psyche B-iodine and Psyche P-iodine (Biacore T200, Single-Cycle Kinetics). The test is classed as binding. The conditions noted are these: for kon: read-out: Ka. An excerpt:
(§3) The data regarding the affinity of CEA-V2122 for Psyche B-iodine and for Psyche P-iodine were obtained in accordance with the description of Japanese Patent Application 2018-247363. Briefly stating, using an amine coupling kit (GE Healthcare Life Sciences), Sensor Chip CM5 (GE Healthcare Life Science) was set to be a target value that was 5000 RU, and the purified CEA-V2122 was immobilized. With regard to the concentration of the analyte, 5 types of two-fold serial dilutions from 1E-08 M to 6.25E-10 M were used. Biacore T200 (GE Healthcare Life Sciences) was used, the measurement temperature was set to be 25° C., and kinetics data were then obtained according to Single-Cycle Kinetics analysis. Using Biacore T200 Evaluation Software, version 2.0 (GE Healthcare Life Sciences), the obtained data were subjected to curve fitting in a Bivalent Analyze mode, and the evaluation value of each parameter was obtained. The dissociation constant KD is obtained according to Kd/Ka=KD.
On the technique in general: Surface plasmon resonance follows binding to a sensor surface in real time, without labels.

Test [3] addresses T2, CEA-V2122 (Streptomyces avidinii, UniProt P22629, Y46S/N47D/S51D/S69N/N73G/Y107S/R108K/E125D/R127K/E140N).
T2 construct: At the C-terminus a 6xHis tag; The expressed gene carries a pelB signal
The description is as above. The test is classed as binding. The conditions noted are these: for bond with CEA-V2122: conclusion from Table 1; for koff: immobilized CEA-V2122, 25° C., Bivalent Analyze mode curve fitting.
Source text: as §3

For test [4], the target named is T3, HER2 (ERBB2) on HER2-positive SKOV3 ovarian cancer cells (UniProt P04626 23-1255, limits assumed).
T3 construct: whole, on cells
Kind of test: astatine-211-labeled Psyche B counted by gamma counter on SKOV3 cells pre-incubated with the fusion protein; CEA-V2122 as negative control. The procedure: as §1
as §2, with “0.875×10⁶” for “0.875×10^6”, “6. The measurement results were Herceptin-V2122-dependent, and it was confirmed that Psyche B-At212 bound to the SKOV3 cells via Herceptin-V2122.” for “6.”

T2 sequence (P22629 whole entry Y46S/N47D/S51D/S69N/N73G/Y107S/R108K/E125D/R127K/E140N, looked up): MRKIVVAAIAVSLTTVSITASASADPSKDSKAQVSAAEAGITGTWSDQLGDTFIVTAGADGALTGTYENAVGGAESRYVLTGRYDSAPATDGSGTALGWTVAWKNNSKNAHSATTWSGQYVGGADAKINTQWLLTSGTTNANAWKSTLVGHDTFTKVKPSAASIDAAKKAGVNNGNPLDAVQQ
T1 sequence (P22629 whole entry E125D/E140N/N47D/N73G/R108K/R127K/S51D/S69N/Y107S/Y46S, looked up): as the sequence (P22629 whole entry Y46S/N47D/S51D/S69N/N73G/Y107S/R108K/E125D/R127K/E140N, looked up) above

As to `N=C1N[C@H]2[C@H](CS[C@H]2CCCCC(=O)NCCCCCC(=O)Nc2cc(NC(=O)CCCCCNC(=O)CCCC[C@@H]3SC[C@@H]4NC(=N)N[C@@H]43)cc(C(=O)NCCOCCOCCNC(=O)c3cccc([211At])c3)c2)N1.O=C(O)C(F)(F)F.O=C(O)C(F)(F)F` [Psyche B-At211, (3aS,3a′S,4S,4′S,6aR,6a′R)-4,4′-(((((5-((2-(2-(2-(3-(Astato-^211At)benzamido)ethoxy)ethoxy)ethyl)carbamoyl)-1,3-phenylene)bis(azanediyl))bis(6-oxohexane-6,1-diyl))bis(azanediyl))bis(5-oxopentane-5,1-diyl))bis(tetrahydro-1H-thieno[3,4-d]imidazol-2(3H)-iminium) 2,2,2-trifluoroacetate], the “binding to SKOV3 cells, radiation dose by gamma counter” value in test [1] was “bound to the SKOV3 cells via Herceptin-V2122”. The “precipitation with Ni-NTA magnetic beads, radiation dose by gamma counter” value in the test on Herceptin-V2122 is recorded as “precipitated in a Herceptin-V2122 presence-dependent manner”.
For the molecule `N=C1N[C@H]2[C@H](CS[C@H]2CCCCC(=O)NCCCCCC(=O)Nc2cc(NC(=O)CCCCCNC(=O)CCCC[C@@H]3SC[C@@H]4NC(=N)N[C@@H]43)cc(C(=O)NCCOCCOCCNC(=O)c3cccc(I)c3)c2)N1` [Psyche B-iodine, (3aS,3a′S,4S,4′S,6aR,6a′R)-4,4′-(((((5-((2-(2-(2-(3-Iodobenzamido)ethoxy)ethoxy)ethyl)carbamoyl)-1,3-phenylene)bis(azanediyl))bis(6-oxohexane-6,1-diyl))bis(azanediyl))bis(5-oxopentane-5,1-diyl))bis(tetrahydro-1H-thieno[3,4-d]imidazol-2(3H)-iminium) 2,2,2-trifluoroacetate], at CEA-V2122 [2], binding was characterised by a dissociation constant (Kd) of 0.022 nM and the kon came to 29000 M⁻¹ s⁻¹. At CEA-V2122 [3], the “bond with CEA-V2122” value is on record as “form a stable bond with CEA-V2122” and the koff worked out at 6.4e-07 s⁻¹.
Regarding `N=C1N[C@H]2[C@H](CS[C@H]2CCCCCOCCCCNC(=O)CN(CCOCCOCCNC(=O)c2cccc(I)c2)CC(=O)NCCCCOCCCCC[C@@H]2SC[C@@H]3NC(=N)N[C@@H]32)N1` [Psyche P-iodine, 2,2′-((2-(2-(2-(3-Iodobenzamido)ethoxy)ethoxy)ethyl)azanediyl)bis(N-(4-((5-((3aS,4S,6aR)-2-iminohexahydro-1H-thieno[3,4-d]imidazol-4-yl)pentyl)oxy)butyl)acetamide) 2,2,2-trifluoroacetate], on CEA-V2122 [2], the equilibrium dissociation constant (Kd) is 4.5 nM and the kon is 6800 M⁻¹ s⁻¹. On CEA-V2122 [3], the “bond with CEA-V2122” value is on record as “form a stable bond with CEA-V2122” and the koff came to 3.1e-05 s⁻¹.

B1: CEA-V2122 (scFv)
scFv: QVKLEQSGAEVVKPGASVKLSCKASGFNIKDSYMHWLRQGPGQRLEWIGWIDPENGDTEYAPKFQGKATFTTDTSANTAYLGLSSLRPEDTAVYYCNEGTPTGPYYFDYWGQGTLVTVSSGGGGSGGGGSGGGGSENVLTQSPSSMSVSVGDRVNIACSASSSVPYMHWLQQKPGKSPKLLIYLTSNLASGVPSRFSGSGSGTDYSLTISSVQPEDAATYYCQQRSSYPLTFGGGTKLEIKGGGGSGGGGAEAGITGTWSDQLGDTFIVTAGADGALTGTYENAVGGAESRYVLTGRYDSAPATDGSGTALGWTVAWKNNSKNAHSATTWSGQYVGGADAKINTQWLLTSGTTNANAWKSTLVGHDTFTKVKPSAASHHHHHH
notes: Fusion of an anti-CEACAM5 scFv and mutant streptavidin V2122; also called scFv-V2122 (anti-CEACAM5)
For the molecule B1, the binding result in test [4] was “no binding”.

For orientation: Kd means the equilibrium constant for the complex coming apart. A higher Kd goes with weaker binding. By koff is commonly meant a measure of how fast the partners let go of each other.
